Measured values reported in PubChem BioAssay AID256 (DTP/NCI, 2004).
Values joined by “and” are separate entries in the source; they are usually repeats but may differ in a detail not shown here. Identical values can stand only once. Toxic doses and inconclusive results are not listed. The calls were made as follows: active = survival T/C of 150% or more; inactive = T/C below 125% in these data.

System: CD2F1 mice, L1210 leukemia ip, survival T/C
Assay: NCI In Vivo Anticancer Drug Screen. Data for tumor model L1210 Leukemia (intraperitoneal) in CD2F1 (CDF1) mice
Settings: higher = longer survival
Outline: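 Mice carrying a transplanted tumor received test compound or vehicle alone. The value is the measurement in the treated group divided by that in the vehicle-treated control group.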

[1] = endpoint: mean survival time, dose: 25.0 mg/kg/injection, schedule: Q01DX001 (ip), vehicle: saline with Tween-80
[2] = endpoint: mean survival time, dose: 100.0 mg/kg/injection, schedule: Q01DX001 (ip), vehicle: saline with Tween-80
[3] = endpoint: mean survival time, dose: 50.0 mg/kg/injection, schedule: Q01DX009 (ip), vehicle: saline with Tween-80
[4] = endpoint: mean survival time, dose: 200.0 mg/kg/injection, schedule: Q01DX009 (ip), vehicle: saline with Tween-80
[5] = endpoint: mean survival time, dose: 200.0 mg/kg/injection, schedule: Q01DX001 (ip), vehicle: saline with Tween-80
[6] = endpoint: mean survival time, dose: 400.0 mg/kg/injection, schedule: Q01DX001 (ip), vehicle: saline with Tween-80
[7] = endpoint: mean survival time, dose: 100.0 mg/kg/injection, schedule: Q01DX009 (ip), vehicle: saline with Tween-80
[8] = endpoint: mean survival time, dose: 400.0 mg/kg/injection, schedule: Q01DX009 (ip), vehicle: saline with Tween-80
[9] = endpoint: mean survival time, dose: 100.0 mg/kg/injection, schedule: Q04DX003 (ip), vehicle: saline with Tween-80
[10] = endpoint: mean survival time, dose: 200.0 mg/kg/injection, schedule: Q04DX003 (ip), vehicle: saline with Tween-80
[11] = endpoint: mean survival time, dose: 400.0 mg/kg/injection, schedule: Q04DX003 (ip), vehicle: saline with Tween-80
[12] = endpoint: mean survival time, dose: 50.0 mg/kg/injection, schedule: Q01DX009 (ip), vehicle: saline

Measured: T/C

COC(=O)c1ccc(OC(=O)Nc2ccc(N(CCCl)CCCl)cc2)cc1
inactive: endpoint: mean survival time, dose: 50.0 mg/kg/injection, schedule: Q01DX001 (ip), vehicle: Klucel (hydroxypropylcellulose) (HPC) 95 % of control

O=C1CC2/C(=[N+](/[O-])O)C=C([N+](=O)[O-])C(C1C(=O)Nc1ccccc1)C2[N+](=O)[O-] (configuration not stated)
inactive: endpoint: mean survival time, dose: 100.0 mg/kg/injection, schedule: Q04DX002 (ip), vehicle: saline with Tween-80 110 % of control | endpoint: mean survival time, dose: 200.0 mg/kg/injection, schedule: Q04DX002 (ip), vehicle: saline with Tween-80 98 % of control | endpoint: mean survival time, dose: 400.0 mg/kg/injection, schedule: Q04DX002 (ip), vehicle: saline with Tween-80 110 % of control

Oc1cc2ccc3c(c2cc1O)CCc1cn[nH]c1-3
inactive: [1] 104 % of control | endpoint: mean survival time, dose: 50.0 mg/kg/injection, schedule: Q01DX001 (ip), vehicle: saline with Tween-80 111 % of control | [2] 92 % of control

O=C1NC(CN2CCOCC2)C(=O)NC1CN1CCOCC1 (configuration not stated)
inactive: endpoint: mean survival time, dose: 3.13 mg/kg/injection, schedule: Q01DX009 (ip), vehicle: water 105 % of control | endpoint: mean survival time, dose: 6.25 mg/kg/injection, schedule: Q01DX009 (ip), vehicle: water 105 % of control | endpoint: mean survival time, dose: 12.5 mg/kg/injection, schedule: Q01DX009 (ip), vehicle: water 103 % of control | endpoint: mean survival time, dose: 25.0 mg/kg/injection, schedule: Q01DX009 (ip), vehicle: water 100 % of control | endpoint: mean survival time, dose: 50.0 mg/kg/injection, schedule: Q01DX009 (ip), vehicle: water 101 % of control | endpoint: mean survival time, dose: 100.0 mg/kg/injection, schedule: Q01DX009 (ip), vehicle: water 106 % of control

C1CC(N2CC2)CCC1N1CC1 (configuration not stated)
inactive: endpoint: mean survival time, dose: 9.0 mg/kg/injection, schedule: Q04DX003 (ip), vehicle: saline 124 % of control | endpoint: mean survival time, dose: 13.0 mg/kg/injection, schedule: Q04DX003 (ip), vehicle: saline 110 % of control | endpoint: mean survival time, dose: 20.0 mg/kg/injection, schedule: Q04DX003 (ip), vehicle: saline 86 % of control
active: endpoint: mean survival time, dose: 6.0 mg/kg/injection, schedule: Q04DX003 (ip), vehicle: saline 169 % of control

[Cl][Pt][Cl].c1ccc2[nH]c(C3CCCC[N-]3)nc2c1 (configuration not stated)
inactive: endpoint: mean survival time, dose: 12.5 mg/kg/injection, schedule: Q01DX009 (ip), vehicle: saline with Tween-80 93 % of control | endpoint: mean survival time, dose: 25.0 mg/kg/injection, schedule: Q01DX009 (ip), vehicle: saline with Tween-80 98 % of control | [3] 94 % of control | [4] 91 % of control

Nc1nc(=O)n(CCCOc2ccccc2NC(=O)c2cccc(S(=O)(=O)F)c2)cc1-c1ccc(Cl)c(Cl)c1
inactive: [2] 91 % of control | [5] 95 % of control | [6] 98 % of control

Cn1c(=O)cc(C=Nc2ccc(S(N)(=O)=O)cc2)c2ccccc21
inactive: [7] 90 % of control | [4] 89 % of control | [8] 89 % of control

C1=C\C[n+]2ccccc2-c2cccc[n+]2C/1
inactive: endpoint: mean survival time, dose: 7.5 mg/kg/injection, schedule: Q01DX001 (ip), vehicle: saline 95 % of control | endpoint: mean survival time, dose: 7.5 mg/kg/injection, schedule: Q04DX003 (ip), vehicle: saline 96 % of control | endpoint: mean survival time, dose: 15.0 mg/kg/injection, schedule: Q01DX001 (ip), vehicle: saline 95 % of control | endpoint: mean survival time, dose: 15.0 mg/kg/injection, schedule: Q04DX003 (ip), vehicle: saline 97 % of control | endpoint: mean survival time, dose: 30.0 mg/kg/injection, schedule: Q01DX001 (ip), vehicle: saline 98 % of control

CCCCNC(=O)Nc1ccc(C(=O)OCCCC)cc1
inactive: [7] 87 % of control | [9] 101 % of control | [4] 92 % of control | [10] 101 % of control | [8] 92 % of control | [11] 100 % of control

Cc1noc2nc(-c3ccccc3)cc(N3CCN(C)CC3)c12
inactive: endpoint: median survival time, dose: 12.5 mg/kg/injection, schedule: Q01DX005 (ip), vehicle: other 100 % of control | endpoint: median survival time, dose: 25.0 mg/kg/injection, schedule: Q01DX005 (ip), vehicle: other 103 % of control | endpoint: median survival time, dose: 50.0 mg/kg/injection, schedule: Q01DX005 (ip), vehicle: other 98 % of control | endpoint: median survival time, dose: 100.0 mg/kg/injection, schedule: Q01DX005 (ip), vehicle: other 97 % of control | endpoint: median survival time, dose: 200.0 mg/kg/injection, schedule: Q01DX005 (ip), vehicle: other 98 % of control

CCCCCCCCCCCCCCCCCCC(C)c1ccccc1 (configuration not stated)
inactive: [2] 101 % of control | [5] 97 % of control | [6] 101 % of control

N#CC1(C#N)OC(C#N)(C#N)c2ccccc21
inactive: endpoint: mean survival time, dose: 6.25 mg/kg/injection, schedule: Q01DX001 (ip), vehicle: saline with Tween-80 102 % of control | endpoint: mean survival time, dose: 12.5 mg/kg/injection, schedule: Q01DX001 (ip), vehicle: saline with Tween-80 98 % of control | [1] 98 % of control

C[C@]12CCCC[C@@H]1CC[C@@H]1[C@@H]2CC[C@]2(C)[C@@H](N(CCO)CCCO)CC[C@@H]12
inactive: endpoint: mean survival time, dose: 100.0 mg/kg/injection, schedule: Q04DX003 (sc), vehicle: steriod suspending solution 98 % of control | endpoint: mean survival time, dose: 200.0 mg/kg/injection, schedule: Q04DX003 (sc), vehicle: steriod suspending solution 91 % of control | endpoint: mean survival time, dose: 400.0 mg/kg/injection, schedule: Q04DX003 (sc), vehicle: steriod suspending solution 107 % of control

Nc1ncnc2c1c1cnc(=O)[nH]c1n2C1OC(CO)C(O)C1O (configuration not stated)
inactive: endpoint: mean survival time, dose: 20.0 mg/kg/injection, schedule: Q01DX005 (ip), vehicle: alkali diluted with water 97 % of control | endpoint: mean survival time, dose: 40.0 mg/kg/injection, schedule: Q01DX005 (ip), vehicle: alkali diluted with water 97 % of control | endpoint: mean survival time, dose: 80.0 mg/kg/injection, schedule: Q01DX005 (ip), vehicle: alkali diluted with water 96 % of control | endpoint: mean survival time, dose: 160.0 mg/kg/injection, schedule: Q01DX005 (ip), vehicle: alkali diluted with water 97 % of control | endpoint: mean survival time, dose: 320.0 mg/kg/injection, schedule: Q01DX005 (ip), vehicle: alkali diluted with water 110 % of control

CC(=O)C1=C(C)NC(C)=C(C(C)=O)C1C
inactive: [7] 100 % of control | [9] 93 % of control | [4] 95 % of control | [10] 97 % of control | [11] 92 % of control

[Cl][Pt+2][Cl].[NH-]C1CCCCC1[NH-] (configuration not stated)
inactive: endpoint: mean survival time, dose: 0.39 mg/kg/injection, schedule: Q04DX003 (ip), vehicle: saline with Tween-80 124 % of control | endpoint: mean survival time, dose: 1.56 mg/kg/injection, schedule: Q04DX002 (ip), vehicle: saline 119 % of control and 124 % of control | endpoint: median survival time, dose: 20.0 mg/kg/injection, schedule: Q04DX003 (ip), vehicle: saline 100 % of control

CCN(C(=O)Nc1ccc(Cl)cc1)c1ccccc1C
inactive: [7] 97 % of control | [4] 94 % of control | [8] 90 % of control

CC(=O)Nc1cccc(OCCCOc2cccc([N+](=O)[O-])c2)c1
inactive: [9] 95 % of control | [10] 95 % of control | [11] 92 % of control

C/C=C/C=C/C(=O)c1cc(C#N)c(OC)cc1O
inactive: [2] 88 % of control | [5] 88 % of control | [6] 89 % of control

NCc1cccc(-c2nc3ncnc(N)c3[nH]2)c1
inactive: [12] 101 % of control | endpoint: mean survival time, dose: 100.0 mg/kg/injection, schedule: Q01DX009 (ip), vehicle: saline 105 % of control

O=[N+]([O-])c1cc(I)c(I)c(I)c1
inactive: [9] 98 % of control | [10] 104 % of control | [11] 98 % of control

Clc1ccc2c(NCCN3CCCCCC3)nc(C(Cl)(Cl)Cl)nc2c1
inactive: [3] 94 % of control | endpoint: mean survival time, dose: 50.0 mg/kg/injection, schedule: Q04DX003 (ip), vehicle: saline with Tween-80 103 % of control | [7] 98 % of control | [9] 94 % of control | [4] 98 % of control | [10] 92 % of control

C=NCC#N
inactive: [9] 106 % of control | [10] 101 % of control

N/C(=N\Cl)C(Cl)(Cl)Cl
inactive: endpoint: mean survival time, dose: 12.5 mg/kg/injection, schedule: Q01DX009 (ip), vehicle: saline 105 % of control | endpoint: mean survival time, dose: 25.0 mg/kg/injection, schedule: Q01DX009 (ip), vehicle: saline 103 % of control | [12] 109 % of control

O=C(SCN1CCCCC1)c1ccccc1
inactive: [3] 98 % of control | [7] 103 % of control | [9] 97 % of control | [10] 95 % of control

O=C(Nc1ccccc1C(F)(F)F)Nc1cccc2ccccc12
inactive: [9] 95 % of control | [10] 104 % of control | [11] 95 % of control
